Measurements taken from PubChem BioAssay (NCI).
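Cells were grown in 96-well plates and exposed to each compound for 48 hours at five concentrations; endpoints were interpolated linearly between bracketing concentrations, or set to the highest concentration if not reached. GI50 = concentration required for 50% inhibition of growth. Definition used: TGI = concentration required for complete inhibition of growth.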 Peptide text beside a SMILES is read from it. * marks the point of attachment. Cbz = O=C(OCc1ccccc1)*

How the values were obtained:
Assay in all cases: NCI anticancer screen, dose series, 48 h
[1] = test system: 786-0 renal
[2] = test system: COLO 205 colon
[3] = test system: IGROV1 ovarian
[4] = test system: HL-60(TB) leukemia
[5] = test system: SF-268 CNS
[6] = test system: SNB-75 CNS
[7] = test system: NCI-H522 lung

Row | SMILES | TGI [1] [µM] | TGI [2] [µM] | TGI [3] [µM] | TGI [4] [µM] | TGI [5] [µM] | TGI [6] [µM] | TGI [7] [µM] | GI50 [5] [µM]
1 | Cc1ccc(C2SCc3nc4ccccc4n32)cc1 (stereo not given) | > 100 | 3.45 | > 100 | 5.94 | > 100 | 0.0817 | 85.6 | –
2 | N#CC(C#N)[C@@H]1CCC=C(Sc2ccccc2)[C@H]1Sc1ccccc1 | 5.64 | 4.86 | 13.6 | 18.7 | 14.7 | 17.9 | 6.01 | –
3 | O=C(c1ccccc1)N1CCC(Nc2cccnc2)O1 (stereo not given) | > 100 | – | > 100 | > 100 | > 100 | – | – | –
4 | CCC1=NC(N/N=C/c2ccco2)=N/C1=C\c1ccco1 | > 100 | > 100 | > 100 | > 100 | > 100 | – | > 100 | –
5 | CCOC(=O)CCCOc1cc(-c2ccccc2F)nc2cc3c(cc12)OCO3 | > 100 | > 100 | > 100 | – | > 100 | > 100 | – | > 100
6 | CCCCCCCCCCCCCCCCCCOC(COP(=O)(O)OCC1OC(n2cc(F)c(=O)[nH]c2=O)CC1O)COP(=O)(O)OCC1OC(n2ccc(N)nc2=O)C(O)C1O (stereo not given) | 28.1 | > 72.9 | > 100 | > 100 | > 75 | > 100 | > 100 | –
7 | N#Cc1n[nH]n(-c2ccccc2)c1=O | > 100 | > 100 | > 100 | > 100 | > 100 | > 100 | > 100 | –
8 | CCC12CN(C(=O)OC)C3C(Br)C1CCC(=O)C32 (stereo not given) | > 100 | > 100 | > 100 | > 100 | > 100 | > 100 | > 100 | –
9 | CCOC1Oc2ccccc2-c2nc(N)ncc21 (stereo not given) | > 100 | > 100 | > 100 | 62.3 | > 100 | > 100 | 72.8 | –
10 | COC(=O)C1=C(C(=O)OC)N(c2ccncc2)C(c2ccco2)=CC1c1ccccc1[N+](=O)[O-] (stereo not given) | 2.94 | 10.2 | 4.19 | 6.06 | 20.8 | 16.3 | 5.06 | –
11 | NC(=S)NN=C1Cc2ccccc2C1 | > 100 | > 100 | > 100 | > 100 | > 100 | > 100 | > 100 | –
12 | CCOC(=O)n1ccc2c(C(=O)OC)c(C(=O)OC)cc(/C(=C/C(=O)OC)C(=O)OC)c21 | > 100 | > 100 | > 100 | > 100 | > 100 | > 100 | > 100 | –
13 | COc1cc([N+](=O)[O-])cc2c1NC(=O)C2(C)SC (stereo not given) | > 100 | > 100 | > 100 | 47.2 | > 100 | 90.6 | > 100 | –
14 | CCOC(=O)CCC(NC(=O)CNC(=O)CNC(=O)C(CCC(=O)OCC)NC(=O)C(CCC(=O)OCC)NC(=O)C(CCC(=O)OCC)NC(=O)OCc1ccccc1)C(=O)NC(CCC(=O)OCC)C(=O)NC(CCC(=O)OCC)C(=O)OCC (stereo not given) (Cbz-E(OEt)E(OEt)E(OEt)GGE(OEt)E(OEt)E(OEt)-OEt; configuration not given here) | > 75 | > 75 | > 75 | – | > 75 | > 75 | > 75 | –
15 | OCCCN=C1N=C(Cl)/C(=C\c2ccccc2)N1 | > 100 | > 100 | > 100 | > 100 | > 100 | > 100 | > 100 | –
16 | CN(C)c1cccc2c(S(=O)(=O)NCCCNCCN)cccc12 | > 100 | 32.8 | > 100 | 43.8 | > 100 | 68.6 | > 100 | –
17 | C[C@]12O[C@@]3(C)O[C@@]3(C)[C@]3(C)O[C@]3(C)[C@@]1(C)O2 | > 100 | > 100 | – | – | > 100 | 74.6 | > 100 | –
18 | O=[N+]([O-])c1ccc2nc(/C=C(\O)c3ccccc3)c(NC34CC5CC(CC(C5)C3)C4)nc2c1 | > 10 | > 10 | > 10 | – | > 10 | > 10 | > 10 | –
19 | O=C1C2CCCCC2C(=O)N1n1c(Cc2ccccc2)n[nH]c1=O (stereo not given) | > 100 | > 100 | > 100 | – | > 100 | > 100 | > 100 | –
20 | CNc1cc(Cl)ccc1C(=O)N1CCC[C@H]1CO | > 100 | > 100 | > 100 | > 100 | > 100 | > 100 | > 100 | –
21 | O=C1NC(=O)C23C(=O)NC(=O)C12C1C=CC3CC1 (stereo not given) | > 10 | > 10 | > 10 | > 10 | > 10 | > 10 | > 10 | –
22 | CCOC(=O)c1nc2ccc(C(F)(F)F)cc2nc1NCc1ccc(F)cc1 | > 100 | 81 | 77.3 | > 100 | 53.9 | > 100 | 88.9 | –
23 | CN1C(CC(O)c2ccccc2)CCCC1CC(O)(c1ccccc1)c1ccccc1 (stereo not given) | 29.1 | 34.2 | 33.1 | 41.8 | 43.7 | 44.8 | 42.3 | –
24 | O=C1c2ccccc2C(=O)c2c1sc1nc3ccccc3n21 | 4.46 | 3.61 | 6.34 | > 100 | 3.9 | 46.1 | – | –
25 | CNC(=O)OCC1=C(COC(=O)NC)CN(c2ccc(OC)cc2)C1 | > 100 | > 100 | > 100 | > 100 | > 100 | > 100 | – | –
26 | O=C(O)c1ccc2[nH]c(=O)oc2c1 | > 100 | > 100 | > 100 | > 100 | > 100 | > 100 | – | –
27 | O=C(Cn1c2c(c3ccccc31)CCCC2)N1CCOCC1 | > 100 | > 100 | > 100 | > 100 | > 100 | – | – | –
28 | Oc1cc(F)cc2cccnc12 | > 100 | > 53.4 | 3.99 | 0.454 | – | > 100 | 3.16 | –
